Test results as given in DBAASP.
Converted amounts (≈) assume the structure as drawn.

Experiments:
Assay in all cases: ≥ marks a high value that may be exact or a test limit, other limits are often not marked, values filed in µg/mL are converted to µM
[1] = system: Salmonella enterica subsp. enterica serovar Typhimurium ATCC 14028
[2] = system: Streptococcus mutans AU159
[3] = system: Pseudomonas aeruginosa ATCC 15422
[4] = system: Staphylococcus aureus ATCC 25923
[5] = system: Bacillus cereus ATCC 11778
[6] = system: Salmonella enterica subsp. enterica serovar Choleraesuis ATCC 10708
[7] = system: Bacillus thuringiensis ATCC 10792
[8] = system: Staphylococcus aureus CCT 2580
[9] = system: Enterococcus hirae ATCC 10541
[10] = system: Staphylococcus epidermidis ATCC 12228
[11] = system: Enterococcus faecium CCT 5079
[12] = system: Pseudomonas aeruginosa ATCC 13388
[13] = system: Escherichia coli ATCC 25922
[14] = system: Escherichia coli ATCC 11775
[15] = system: Escherichia coli CCT 1457
[16] = system: Micrococcus luteus ATCC 4698
[17] = system: Streptococcus pneumoniae ATCC 11733
[18] = system: Staphylococcus aureus CCT 6538
[19] = system: Candida albicans ATCC 90028
[20] = system: Batrachochytrium dendrobatidis
[21] = system: Bacillus subtilis VKM B-501
Escherichia coli C600 = system: Escherichia coli C600
[22] = system: Staphylococcus aureus 209P

Row | Compound | MIC [1] [µM] | MIC [2] [µM] | MIC [3] [µM] | MIC [4] [µM] | MIC [5] [µM] | MIC [6] [µM] | MIC [7] [µM] | MIC [8] [µM] | MIC [9] [µM] | MIC [10] [µM] | MIC [11] [µM] | MIC [12] [µM] | MIC [13] [µM] | MIC [14] [µM] | MIC [15] [µM] | MIC [16] [µM] | MIC [17] [µM] | MIC [18] [µM] | MIC [20] [µM] | other results
1 | CC[C@H](C)[C@H](N)C(=O)N[C@@H](CC(N)=O)C(=O)N[C@@H](Cc1c[nH]c2ccccc12)C(=O)N[C@@H](CCCCN)C(=O)N[C@@H](CCCCN)C(=O)N[C@H](C(=O)N[C@@H](CCCCN)C(=O)N[C@@H](CCCCN)C(=O)N[C@@H](CCCCN)C(=O)N[C@H](C(=O)N[C@@H](C)C(=O)NCC(=O)N[C@@H](CCSC)C(=O)N[C@@H](CC(C)C)C(N)=O)C(C)C)[C@@H](C)CC [INWKKIKKKVAGML] | 2.41 (≈ 4 µg/mL) | 2.41 (≈ 4 µg/mL) | 4.83 (≈ 8 µg/mL) | 1.21 (≈ 2 µg/mL) | 18.7 (≈ 31 µg/mL) | 18.7 (≈ 31 µg/mL) | 18.7 (≈ 31 µg/mL) | 1.21 (≈ 2 µg/mL) | 18.7 (≈ 31 µg/mL) | 0.604 (≈ 0.999 µg/mL) | 1.21 (≈ 2 µg/mL) | 2.41 (≈ 4 µg/mL) | 9.66 (≈ 16 µg/mL) | 2.41 (≈ 4 µg/mL) | 2.41 (≈ 4 µg/mL) | 0.604 (≈ 0.999 µg/mL) | 0.604 (≈ 0.999 µg/mL) | 2.41 (≈ 4 µg/mL) |  | 
2 | CC[C@H](C)[C@H](N)C(=O)N[C@@H](CC(N)=O)C(=O)N[C@@H](Cc1c[nH]c2ccccc12)C(=O)N[C@@H](CC(C)C)C(=O)N[C@@H](CCCCN)C(=O)N[C@H](C(=O)N[C@@H](CCCCN)C(=O)N[C@@H](CCCCN)C(=O)N[C@@H](CCCCN)C(=O)N[C@H](C(=O)N[C@@H](C)C(=O)NCC(=O)N[C@@H](CCSC)C(=O)N[C@@H](CC(C)C)C(N)=O)C(C)C)[C@@H](C)CC [INWLKIKKKVAGML] | 18.9 (≈ 31 µg/mL) | 2.44 (≈ 4 µg/mL) | ≥ 76.1 | 1.22 (≈ 2 µg/mL) | ≥ 152 | ≥ 304 | ≥ 76.1 | 4.87 (≈ 8 µg/mL) | 18.9 (≈ 31 µg/mL) | 2.44 (≈ 4 µg/mL) | 4.87 (≈ 8 µg/mL) | ≥ 152 | 18.9 (≈ 31 µg/mL) | 18.9 (≈ 31 µg/mL) | 4.87 (≈ 8 µg/mL) | 2.44 (≈ 4 µg/mL) | 1.22 (≈ 2 µg/mL) | 18.9 (≈ 31 µg/mL) |  | MIC [19]: ≥ 38.1 µM
3 | CC[C@H](C)[C@H](NC(=O)[C@H](CC(C)C)NC(=O)[C@@H]1CCCN1C(=O)[C@H](CC(C)C)NC(=O)[C@H](CCCCN)NC(=O)[C@H](CCCCN)NC(=O)[C@H](Cc1ccccc1)NC(=O)[C@H](CC(C)C)NC(=O)[C@H](CCCCN)NC(=O)[C@H](Cc1c[nH]c2ccccc12)NC(=O)[C@@H](N)CCCCN)C(=O)NCC(=O)N[C@@H](CCCN=C(N)N)C(=O)N[C@H](C(=O)N[C@@H](CC(C)C)C(N)=O)C(C)C [KWKLFKKLPLIGRVL] |  |  |  |  |  |  |  |  |  |  |  |  |  |  |  |  |  |  | ≥ 100 | 
4 | CC(C)C[C@H](NC(=O)CN)C(=O)N[C@@H](CC(C)C)C(=O)N[C@@H](C)C(=O)N[C@@H](CO)C(=O)N[C@@H](CC(C)C)C(=O)NCC(=O)N[C@@H](CCCCN)C(=O)N[C@H](C(=O)N[C@@H](Cc1ccccc1)C(=O)NCC(=O)NCC(=O)N[C@@H](Cc1ccc(O)cc1)C(=O)N[C@@H](CC(C)C)C(=O)N[C@@H](C)C(=O)N[C@@H](CCC(=O)O)C(=O)N[C@@H](CCCCN)C(=O)N[C@@H](CC(C)C)C(=O)N[C@@H](CCCCN)C(=O)N1CCC[C@H]1C(=O)N[C@@H](CCCCN)C(=O)O)C(C)C [GLLASLGKVFGGYLAEKLKPK] |  |  |  |  |  |  |  |  |  |  |  |  |  |  |  |  |  |  | ≥ 200 | 
5 | CC(C)C[C@H](NC(=O)[C@H](CCCN=C(N)N)NC(=O)[C@H](CCCCN)NC(=O)[C@H](CCCCN)NC(=O)[C@H](CC(C)C)NC(=O)[C@H](CC(N)=O)NC(=O)[C@H](C)NC(=O)[C@H](Cc1ccccc1)NC(=O)[C@H](CCCN=C(N)N)NC(=O)[C@H](CCCN=C(N)N)NC(=O)[C@H](CCCCN)NC(=O)[C@H](Cc1ccccc1)NC(=O)[C@H](CO)NC(=O)[C@H](C)NC(=O)CNC(=O)[C@H](Cc1ccccc1)NC(=O)[C@H](CCCCN)NC(=O)[C@H](CCCCN)NC(=O)[C@H](Cc1ccccc1)NC(=O)[C@H](Cc1ccc(O)cc1)NC(=O)[C@H](CCC(=O)O)NC(=O)[C@H](CCCCN)NC(=O)[C@H](CCCN=C(N)N)NC(=O)[C@H](CCCCN)NC(=O)CNC(=O)[C@H](Cc1ccccc1)NC(=O)[C@H](Cc1ccccc1)NC(=O)CN)C(N)=O [GFFGKRKEYFKKFGASFKRRFANLKKRL] |  |  |  |  |  |  |  |  |  |  |  |  |  |  |  |  |  |  |  | MIC [21]: 0.7 µM (≈ 2.42 µg/mL); MIC (Escherichia coli C600): 1.5 µM (≈ 5.18 µg/mL); MIC [22]: 6 µM (≈ 20.7 µg/mL)
